# Results as given in patent publication US7803821B2, “Fungicide N-cycloalkyl-carboxamide, thiocarboxamide and N-substituted-carboximidamide derivatives” (Bayer Cropscience SA, priority 2006, dated 2010).
# Experiment: log P by HPLC on reversed-phase column (C18), EEC Directive 79/831 Annex V.A8
# Format: physicochemical
# Settings: C18, 40° C., 0.1% aqueous formic acid and acetonitrile, gradient 10% to 90% acetonitrile
# Description: Temperature: 40° C.; Mobile phases: 0.1% aqueous formic acid and acetonitrile; linear gradient from 10% acetonitrile to 90% acetonitrile.
row,logP,Structure (SMILES)
1,1.05,COc1ccnc(CN(C(=O)c2cn(C)nc2C(F)F)C2CC2)c1OC [Example 114]
2,0.56,COc1ccnc(CN(C(=O)c2cn(C)nc2OC)C2CC2)c1OC [Example 115]
